Assay results as given in article PMC8294059, “Identification and Immune Assessment of T Cell Epitopes in Five Plasmodium falciparum Blood Stage Antigens to Facilitate Vaccine Candidate Selection and Optimization” (Frontiers in Immunology, 2021).
Like-named read-outs stand apart in the source and are kept apart here. Where a SMILES comes first, the peptide text is derived from it.

Experiments:
HLA-A*0101 = HLA-A*0101 (Homo sapiens, UniProt P04439, A114D/A174V/A182V/D101N/D185E/E176A/E190D/L180R/Q94H/R68K/S129P/T187R/V100A/V91M/W191G); assay: biochemical; assay type: binding; conditions: allele A*0101
Method: (§1) A cell-free class I HLA binding assay that allows for in vitro quantification of peptide-HLA binding affinity in a competition format was used. In this assay, a fluorescently labeled, high binding, control peptide is loaded onto 384-well ½-area plates along with unlabeled experimental peptides. To remove endogenous peptides and render the HLA A and B molecules receptive to binding, HLA is heated at 53°C for 15 minutes and immediately added to the assay. The mixture is then allowed to stand for three days. Once the mixture has reached steady equilibrium (at 72 hours), displacement of the high binding control peptide is measured through fluorescence polarization. Binding of experimental peptides is expressed as the percent inhibition of the labeled control peptide (experimental fluorescence / control fluorescence, multiplied by 100). The percent inhibition values for each experimental peptide (across a range of molar concentrations) are used to calculate the concentration which inhibits 50% of the labeled control peptide’s specific binding. This value is referred to as the peptide’s IC50.

HLA-A*0201 = HLA-A*0201 (Homo sapiens, UniProt P04439, D140Y/D185E/D98H/E176V/E277Q/G131W/G231S/I119V/I121R/I166T/I218V/L300P/L318F/N151K/N90K/P208A/P217A/Q86G/Q94H/R138H/R169H/T345S); assay: In vitro class I HLA binding assay (fluorescence polarization competition); conditions: allele A*0201
Method: as §1

[1] = cell-free competition, fluorescence polarization at 72 hours, Non-binder = no dose-dependent inhibition, read-out: IC50
[2] = fluorescence polarization competition, read-out: IC50 (nM), in vitro HLA binding affinity
[3] = fluorescence polarization competition

Row | Compound | IC50 (HLA-A*0201; [2]) | also measured
1 | CC[C@H](C)[C@H](NC(=O)[C@H](CC(C)C)NC(=O)[C@H](CO)NC(=O)[C@H](CO)NC(=O)[C@@H](N)[C@@H](C)O)C(=O)N[C@@H](CCCCN)C(=O)N[C@@H](CCC(N)=O)C(=O)N[C@@H](CC(N)=O)C(=O)N[C@@H](CCCCN)C(=O)N[C@@H](Cc1ccc(O)cc1)C(=O)O [EBA175_0114] (H-TSSLIKQNKY-OH) |  | IC50 (HLA-A*0101; [1]): 37100 nM
2 | CC[C@H](C)[C@H](NC(=O)[C@@H](NC(=O)[C@H](Cc1ccccc1)NC(=O)[C@H](CC(=O)O)NC(=O)[C@H](CC(C)C)NC(=O)[C@@H](N)Cc1c[nH]cn1)C(C)C)C(=O)N[C@H](C(=O)N1CCC[C@H]1C(=O)N[C@@H](Cc1c[nH]cn1)C(=O)N[C@@H](Cc1ccc(O)cc1)C(=O)O)[C@@H](C)CC [RH5_170] (H-HLDFVIIPHY-OH) |  | IC50 (HLA-A*0101; [2]): 118000 nM
3 | CC(C)C[C@H](NC(=O)[C@H](Cc1ccc(O)cc1)NC(=O)[C@H](C)NC(=O)[C@H](Cc1ccc(O)cc1)NC(=O)[C@H](CC(=O)O)NC(=O)[C@H](CC(N)=O)NC(=O)[C@@H](N)CCC(=O)O)C(=O)N[C@@H](CC(N)=O)C(=O)N[C@@H](CCCCN)C(=O)N[C@@H](Cc1ccc(O)cc1)C(=O)O [RIPR_0059] (H-ENDYAYLNKY-OH) |  | IC50 (HLA-A*0101; [2]): 42200 nM
4 | C[C@H](N)C(=O)N[C@@H](CO)C(=O)N[C@@H](CC(=O)O)C(=O)N[C@@H](CCC(N)=O)C(=O)N1CCC[C@H]1C(=O)N[C@@H](CCCCN)C(=O)N[C@@H](CCC(N)=O)C(=O)N[C@@H](Cc1ccc(O)cc1)C(=O)N[C@@H](CCC(=O)O)C(=O)N[C@@H](CCC(N)=O)C(=O)O [AMA1_346] (H-ASDQPKQYEQ-OH) |  | IC50 (HLA-A*0101; [2]): 126000 nM
5 | CC[C@H](C)[C@H](NC(=O)CNC(=O)[C@H](CC(N)=O)NC(=O)[C@@H](NC(=O)[C@@H](N)CC(N)=O)[C@@H](C)O)C(=O)N[C@@H](CCCNC(=N)N)C(=O)N[C@@H](Cc1ccc(O)cc1)C(=O)N[C@@H](Cc1c[nH]cn1)C(=O)N[C@@H](Cc1ccc(O)cc1)C(=O)O [RH5_352] (H-NTNGIRYHY-OH) |  | IC50 (HLA-A*0101; [2]): 4380 nM
6 | CC(C)C[C@H](N)C(=O)N[C@H](C(=O)N1CCC[C@H]1C(=O)N[C@H](C(=O)N[C@@H](C)C(=O)N[C@H](C(=O)NCC(=O)N[C@@H](CC(N)=O)C(=O)N[C@@H](CCC(N)=O)C(=O)N[C@@H](Cc1ccc(O)cc1)C(=O)O)[C@@H](C)O)C(C)C)[C@@H](C)O [AMA1_166] (H-LTPVATGNQY-OH) |  | IC50 (HLA-A*0101; [2]): 2560 nM
7 | CC(C)[C@H](NC(=O)[C@H](CC(N)=O)NC(=O)[C@H](CCCCN)NC(=O)[C@H](Cc1ccc(O)cc1)NC(=O)[C@H](CC(=O)O)NC(=O)[C@H](CCC(=O)O)NC(=O)[C@@H](N)CC(N)=O)C(=O)N[C@@H](CC(=O)O)C(=O)N[C@@H](Cc1ccc(O)cc1)C(=O)O [RH5_131] (H-NEDYKNVDY-OH) |  | IC50 (HLA-A*0101; [2]): 8920 nM
8 | DSCVPNTNEY [RIPR_0976] |  | IC50 (nM), in vitro HLA binding affinity (HLA-A*0101; [3]): Non-binder
9 | CC[C@H](C)[C@H](NC(=O)[C@H](CC(C)C)NC(=O)[C@H](CCCCN)NC(=O)[C@H](Cc1c[nH]cn1)NC(=O)[C@@H](NC(=O)[C@@H](N)Cc1ccc(O)cc1)[C@@H](C)CC)C(=O)N[C@@H](CC(C)C)C(=O)N[C@@H](CO)C(=O)N[C@H](C(=O)O)C(C)C [RH5_363] (H-YIHKLILSV-OH) | 1150 nM | 
10 | CC[C@H](C)[C@H](NC(=O)[C@@H](NC(=O)[C@H](CC(N)=O)NC(=O)[C@H](CC(=O)O)NC(=O)[C@H](CC(N)=O)NC(=O)CNC(=O)[C@H](CC(N)=O)NC(=O)[C@H](CC(C)C)NC(=O)[C@@H](N)C(C)C)[C@@H](C)O)C(=O)O [EBA175_0437] (H-VLNGNDNTI-OH) |  | IC50 (HLA-A*0201; [1]): 7310 nM
11 | CC[C@H](C)[C@H](NC(=O)[C@H](CC(N)=O)NC(=O)[C@H](CC(N)=O)NC(=O)[C@H](CC(C)C)NC(=O)[C@@H](N)Cc1c[nH]cn1)C(=O)N[C@@H](Cc1ccccc1)C(=O)N[C@@H](Cc1c[nH]cn1)C(=O)N[C@@H](Cc1c[nH]cn1)C(=O)N[C@@H](CC(C)C)C(=O)O [RH5_489] (H-HLNNIFHHL-OH) | 225 nM | 
12 | CC[C@H](C)[C@H](N)C(=O)N[C@@H](CC(C)C)C(=O)N[C@@H](CC(=O)O)C(=O)N[C@@H](CCSC)C(=O)N[C@@H](CO)C(=O)N[C@@H](CC(N)=O)C(=O)N[C@@H](CCC(=O)O)C(=O)N[C@@H](Cc1ccc(O)cc1)C(=O)N[C@@H](CO)C(=O)N[C@@H](CC(C)C)C(=O)O [RH5_459] (H-ILDMSNEYSL-OH) | 6870 nM | 
13 | CC[C@H](C)[C@H](NC(=O)[C@@H](NC(=O)[C@H](C)NC(=O)[C@H](CC(C)C)NC(=O)[C@@H](NC(=O)[C@H](C)N)C(C)C)[C@@H](C)O)C(=O)N[C@@H](CC(C)C)C(=O)N[C@@H](CCSC)C(=O)N[C@H](C(=O)O)C(C)C [AMA1_556] (H-AVLATILMV-OH) | 23600 nM | 
14 | DMSNEYSLFI [RH5_461] |  | IC50 (nM), in vitro HLA binding affinity (HLA-A*0201; [3]): Non-Binder
15 | CSCC[C@H](NC(=O)[C@H](CCC(N)=O)NC(=O)[C@@H](N)CCCNC(=N)N)C(=O)N[C@@H](CC(C)C)C(=O)N[C@@H](Cc1ccc(O)cc1)C(=O)N[C@@H](CC(N)=O)C(=O)N[C@H](C(=O)N[C@@H](Cc1ccccc1)C(=O)N[C@@H](Cc1ccc(O)cc1)C(=O)N[C@@H](CO)C(=O)O)[C@@H](C)O [RH5_476] (H-RQMLYNTFYS-OH) | 319000 nM | 
16 | CC[C@H](C)[C@H](NC(=O)[C@H](CCCCN)NC(=O)[C@H](Cc1c[nH]c2ccccc12)NC(=O)[C@@H](NC(=O)[C@@H](NC(=O)[C@H](CCC(N)=O)NC(=O)[C@H](CC(N)=O)NC(=O)[C@H](Cc1ccc(O)cc1)NC(=O)[C@@H](NC(=O)[C@@H](N)Cc1ccc(O)cc1)[C@@H](C)CC)[C@@H](C)CC)[C@@H](C)CC)C(=O)O [RIPR_1011] (H-YIYNQIIWKI-OH) | 1950 nM | 
17 | CC(C)C[C@H](NC(=O)[C@H](CO)NC(=O)[C@H](Cc1ccccc1)NC(=O)[C@@H](NC(=O)[C@H](CC(C)C)NC(=O)[C@@H](N)CCCCN)[C@@H](C)O)C(=O)N[C@@H](CC(=O)O)C(=O)N[C@@H](Cc1c[nH]cn1)C(=O)N[C@@H](CCCNC(=N)N)C(=O)N[C@H](C(=O)O)C(C)C [RIPR_0035] (H-KLTFSLDHRV-OH) | 8880 nM | 
18 | CSCC[C@H](NC(=O)[C@H](Cc1ccc(O)cc1)NC(=O)[C@H](CCC(=O)O)NC(=O)[C@@H](NC(=O)[C@H](Cc1c[nH]c2ccccc12)NC(=O)[C@@H]1CCCN1C(=O)[C@H](CC(N)=O)NC(=O)CNC(=O)[C@H](CCSC)NC(=O)[C@@H](N)Cc1ccc(O)cc1)[C@@H](C)O)C(=O)O [AMA1_105] (H-YMGNPWTEYM-OH) | 21400 nM | 
19 | CC[C@H](C)[C@H](NC(=O)[C@@H](NC(=O)[C@H](CC(N)=O)NC(=O)[C@H](CC(=O)O)NC(=O)[C@H](CC(N)=O)NC(=O)CNC(=O)[C@H](CC(N)=O)NC(=O)[C@H](CC(C)C)NC(=O)[C@@H](NC(=O)[C@@H](N)CO)C(C)C)[C@@H](C)O)C(=O)O [EBA175_0436] (H-SVLNGNDNTI-OH) |  | IC50 (HLA-A*0201; [1]): 640000 nM
20 | CC[C@H](C)[C@H](NC(=O)[C@H](Cc1ccccc1)NC(=O)[C@H](CC(C)C)NC(=O)[C@@H](N)CO)C(=O)N[C@H](C(=O)N[C@@H](CO)C(=O)N[C@@H](CC(=O)O)C(=O)N[C@@H](Cc1c[nH]cn1)C(=O)N[C@@H](CC(C)C)C(=O)O)[C@@H](C)O [RH5_467] (H-SLFITSDHL-OH) | 7120 nM | 
21 | CC[C@H](C)[C@H](NC(=O)[C@H](CC(C)C)NC(=O)[C@H](Cc1c[nH]cn1)NC(=O)[C@H](Cc1c[nH]cn1)NC(=O)[C@H](Cc1ccccc1)NC(=O)[C@@H](NC(=O)[C@@H](N)CC(N)=O)[C@@H](C)CC)C(=O)N[C@@H](Cc1ccc(O)cc1)C(=O)N[C@H](C(=O)O)C(C)C [RH5_492] (H-NIFHHLIYV-OH) | 2290 nM | 
22 | CC[C@H](C)[C@H](NC(=O)[C@H](CO)NC(=O)[C@H](C)NC(=O)[C@H](CC(=O)O)NC(=O)[C@H](CC(=O)O)NC(=O)[C@H](CC(N)=O)NC(=O)[C@H](Cc1ccc(O)cc1)NC(=O)[C@H](CCC(N)=O)NC(=O)[C@@H](N)Cc1ccccc1)C(=O)O [RIPR_0991] (H-FQYNDDASI-OH) | 275 nM | 
23 | CC(C)C[C@H](NC(=O)CNC(=O)[C@H](CC(=O)O)NC(=O)[C@H](CC(N)=O)NC(=O)[C@@H](NC(=O)[C@H](CC(N)=O)NC(=O)[C@@H](NC(=O)[C@H](CC(N)=O)NC(=O)[C@H](CC(C)C)NC(=O)[C@@H](N)Cc1ccc(O)cc1)[C@@H](C)O)C(C)C)C(=O)O [RH5_86] (H-YLNTNVNDGL-OH) | 2830 nM | 
24 | CC[C@H](C)[C@H](NC(=O)[C@@H](N)Cc1ccccc1)C(=O)N[C@@H](CO)C(=O)N[C@@H](CC(=O)O)C(=O)N[C@@H](CC(=O)O)C(=O)N[C@@H](CCCCN)C(=O)N[C@@H](CC(=O)O)C(=O)N[C@@H](CO)C(=O)N[C@@H](CC(C)C)C(=O)O [AMA1_480] (H-FISDDKDSL-OH) | 336000 nM | 
25 | CC[C@H](C)[C@H](NC(=O)[C@H](CO)NC(=O)[C@H](CCCCN)NC(=O)[C@H](Cc1ccccc1)NC(=O)[C@H](CCC(=O)O)NC(=O)[C@H](CO)NC(=O)[C@H](Cc1ccc(O)cc1)NC(=O)[C@H](CCSC)NC(=O)[C@@H](N)CCCCN)C(=O)O [EBA175_0697] (H-KMYSEFKSI-OH) |  | IC50 (HLA-A*0201; [1]): 1020 nM
